{"source": "patent US20110195896A1", "about": "(CASE WESTERN RESERVE UNIVERSITY, priority 2008, published 2011)", "key": {"[1]": {"molecular_target": "IGF Type I receptor (IGFR) (Homo sapiens, UniProt P08069)", "sequence (P08069 31-736 limits assumed)": "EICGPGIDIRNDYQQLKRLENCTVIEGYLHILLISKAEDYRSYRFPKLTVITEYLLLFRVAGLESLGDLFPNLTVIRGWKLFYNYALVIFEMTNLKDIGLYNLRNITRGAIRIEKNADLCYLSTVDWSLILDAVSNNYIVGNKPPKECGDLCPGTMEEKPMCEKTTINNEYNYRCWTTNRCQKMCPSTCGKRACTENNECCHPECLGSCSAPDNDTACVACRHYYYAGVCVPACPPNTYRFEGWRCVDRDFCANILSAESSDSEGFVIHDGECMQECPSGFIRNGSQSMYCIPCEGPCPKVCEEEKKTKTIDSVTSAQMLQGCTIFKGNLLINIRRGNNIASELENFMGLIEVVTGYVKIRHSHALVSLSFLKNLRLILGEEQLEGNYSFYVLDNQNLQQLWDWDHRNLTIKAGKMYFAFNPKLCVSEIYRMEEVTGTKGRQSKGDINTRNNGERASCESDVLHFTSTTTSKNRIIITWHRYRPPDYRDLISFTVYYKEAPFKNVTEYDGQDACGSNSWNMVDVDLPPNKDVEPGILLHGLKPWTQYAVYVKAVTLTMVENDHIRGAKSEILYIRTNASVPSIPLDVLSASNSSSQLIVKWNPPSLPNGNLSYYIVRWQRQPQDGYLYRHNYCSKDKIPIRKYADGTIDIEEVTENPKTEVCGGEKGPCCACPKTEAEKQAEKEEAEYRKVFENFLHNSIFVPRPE", "sequence (P08069 741-1367 partner limits assumed)": "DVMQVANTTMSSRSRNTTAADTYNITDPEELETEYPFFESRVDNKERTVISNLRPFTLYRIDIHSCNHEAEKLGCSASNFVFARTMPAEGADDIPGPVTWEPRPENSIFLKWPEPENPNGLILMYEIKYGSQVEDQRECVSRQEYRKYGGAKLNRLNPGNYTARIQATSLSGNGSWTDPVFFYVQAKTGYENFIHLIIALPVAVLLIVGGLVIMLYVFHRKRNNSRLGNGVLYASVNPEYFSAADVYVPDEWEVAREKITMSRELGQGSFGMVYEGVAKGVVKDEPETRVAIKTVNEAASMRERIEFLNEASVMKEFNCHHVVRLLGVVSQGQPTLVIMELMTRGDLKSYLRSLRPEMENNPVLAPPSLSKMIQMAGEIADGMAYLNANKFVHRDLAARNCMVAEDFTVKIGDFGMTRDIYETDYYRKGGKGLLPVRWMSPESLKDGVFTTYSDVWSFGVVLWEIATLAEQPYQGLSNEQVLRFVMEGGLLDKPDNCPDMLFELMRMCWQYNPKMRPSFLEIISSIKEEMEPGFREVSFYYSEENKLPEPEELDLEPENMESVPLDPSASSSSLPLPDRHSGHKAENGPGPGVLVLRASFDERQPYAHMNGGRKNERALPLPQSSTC", "assay": "Competitive receptor-binding assay, epitope-tagged IGF Type I receptor", "protocol": "(§1) Relative activity may be defined by comparison of the dissociation constants (Keq) governing the hormone-receptor binding reaction.\n(§2) Receptor-Binding Assays. […] This assay employs the purified epitope-tagged receptor (IR-A, IR-B, or IGFR) using a microtiter-plate antibody-capture assay as known in the art. The epitope tag consists of three tandem repeats of the FLAG epitope. Microtiter strip plates (Nunc Maxisorb) were incubated overnight at 4° C. with anti-FLAG IgG (100 μl/well of […] in phosphate-buffered saline). Binding data were analyzed by a single-site heterologous competition binding model. A corresponding microtiter plate antibody assay using the epitope-tagged IGF Type I receptor was employed to assess cross-binding of analogues to this homologous receptor."}, "[2]": {"molecular_target": "insulin receptor (Homo sapiens, UniProt P06213)", "conditions": "background; cited from earlier work"}, "[3]": {"molecular_target": "insulin receptor isoform B (IR-B, HIRB) (Homo sapiens, UniProt P06213)", "assay": "Competitive receptor-binding assay, 125I-insulin tracer, epitope-tagged receptor antibody capture (IR-B)", "conditions": "normalized to 100% = binding affinity of wild-type human insulin for IR-A", "protocol": "as §1, §2"}, "[4]": {"molecular_target": "insulin receptor isoform A (IR-A, HIRA) (Homo sapiens, UniProt P06213)", "assay": "Competitive receptor-binding assay, 125I-insulin tracer, epitope-tagged receptor antibody capture (IR-A)", "conditions": "ratio of IR-A to IR-B binding", "protocol": "as §1, §2"}}, "note": "“Also recorded” adds a separate entry of the source. Like-named read-outs stand apart in the source and are kept apart here.", "data": [{"molecule": "CC[C@H](C)[C@@H]1NC(=O)CNC(=O)[C@H](CCCNC(=N)N)NC(=O)[C@H](CCCNC(=N)N)NC(=O)[C@@H]2CCCN2C(=O)CNC(=O)CNC(=O)CNC(=O)[C@H]([C@@H](C)O)NC(=O)[C@@H]2CCCN2C(=O)[C@H](CC(=O)O)NC(=O)[C@H]([C@@H](C)O)NC(=O)[C@H](Cc2ccc(O)cc2)NC(=O)[C@H](Cc2ccccc2)NC(=O)[C@H](Cc2ccccc2)NC(=O)CNC(=O)[C@H](CCCNC(=N)N)NC(=O)[C@H](CCC(=O)O)NC(=O)CNC(=O)[C@@H]2CSSC[C@@H](C(=O)N[C@@H](CC(N)=O)C(=O)O)NC(=O)[C@H](Cc3ccc(O)cc3)NC(=O)[C@H](CC(N)=O)NC(=O)[C@H](CCC(=O)O)NC(=O)[C@H](CC(C)C)NC(=O)[C@H](CCC(N)=O)NC(=O)[C@H](Cc3ccc(O)cc3)NC(=O)[C@H](CC(C)C)NC(=O)[C@H](CO)NC(=O)[C@@H]3CSSC[C@H](NC(=O)[C@H](CCC(N)=O)NC(=O)[C@H](CCC(=O)O)NC(=O)[C@H](C(C)C)NC1=O)C(=O)N[C@@H](CSSC[C@H](NC(=O)[C@H](CC(C)C)NC(=O)[C@H](Cc1c[nH]cn1)NC(=O)[C@H](CCC(N)=O)NC(=O)[C@H](CC(N)=O)NC(=O)[C@@H](NC(=O)[C@@H](N)Cc1ccccc1)C(C)C)C(=O)NCC(=O)N[C@@H](CO)C(=O)N[C@@H](Cc1c[nH]cn1)C(=O)N[C@@H](CC(C)C)C(=O)N[C@@H](C(C)C)C(=O)N[C@@H](CCC(=O)O)C(=O)N[C@@H](C)C(=O)N[C@@H](CC(C)C)C(=O)N[C@@H](Cc1ccc(O)cc1)C(=O)N[C@@H](CC(C)C)C(=O)N[C@@H](C(C)C)C(=O)N2)C(=O)N[C@@H](Cc1c[nH]cn1)C(=O)N[C@@H](CO)C(=O)N[C@@H]([C@@H](C)CC)C(=O)N3", "note": "[[His^A8, Asp^B28, Pro^B29]-SCI]", "values": [{"measurement": "Kd", "setting": "[1]", "value": "27.6 ± 1.18", "unit": "nM"}]}, {"molecule": "Lantus ®", "values": [{"measurement": "IGFR Relative Affinity", "setting": "[1]; absolute number relative to IGF-1 (=1)", "value": 0.015}, {"measurement": "IGFR Relative Affinity", "setting": "[1]; absolute number relative to unmodified human insulin (=1)", "value": "2-3"}, {"measurement": "Kd", "setting": "[1]; read-out: IGFR Kd", "value": "3.14 ± 0.44", "unit": "nM"}]}, {"molecule": "insulin-like growth factor II [IGF-II]", "values": [{"measurement": "affinity for either IR isoform relative to human insulin", "setting": "[2]", "value": "< 20", "unit": "%"}, {"measurement": "RELATIVE AFFINITY INSULIN RECEPTOR Isoform B", "setting": "[3]", "value": 4, "unit": "%"}, {"measurement": "selectivity / preference for IR-A relative to IR-B", "setting": "[4]", "value": "between fourfold and tenfold; also recorded: greater than twofold preference for IR-A"}]}]}
